Source: paper PMC5656517 (European journal of pharmaceutical sciences : official …, 2017)

Columns and labels:
[1] = system: one or more cytochrome P450 enzymes (CYP1A2, 2A6, 2B6, 2C8, 2C9, 2C19, 2D6, 2E1, 3A4); isoform not specified per value; test: in vitro; conditions: human, pH 7.4
CYP2B6 [2] = molecular target: T1, CYP2B6 (Homo sapiens, UniProt P20813); test: Single concentration; format: in vitro ADME; conditions: human liver microsomes
T1 sequence (P20813 1-491): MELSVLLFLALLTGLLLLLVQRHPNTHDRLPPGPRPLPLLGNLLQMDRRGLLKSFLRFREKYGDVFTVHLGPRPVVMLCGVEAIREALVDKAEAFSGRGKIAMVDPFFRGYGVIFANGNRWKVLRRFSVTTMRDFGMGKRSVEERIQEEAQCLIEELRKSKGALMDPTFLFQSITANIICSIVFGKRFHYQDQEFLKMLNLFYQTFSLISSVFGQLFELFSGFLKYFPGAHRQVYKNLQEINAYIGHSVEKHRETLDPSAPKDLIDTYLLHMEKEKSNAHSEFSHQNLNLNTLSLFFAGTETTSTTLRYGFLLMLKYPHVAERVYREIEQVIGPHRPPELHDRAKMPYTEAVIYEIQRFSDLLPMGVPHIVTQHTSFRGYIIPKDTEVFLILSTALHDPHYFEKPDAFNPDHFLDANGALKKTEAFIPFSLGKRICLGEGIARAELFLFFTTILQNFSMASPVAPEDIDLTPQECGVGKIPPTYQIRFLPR

CYP2C9 = CYP2C9 (Homo sapiens, UniProt P11712); conditions: recombinant enzymes; ref Kent et al., (2002); cited from earlier work
Chain of CYP2C9 (P11712 whole entry): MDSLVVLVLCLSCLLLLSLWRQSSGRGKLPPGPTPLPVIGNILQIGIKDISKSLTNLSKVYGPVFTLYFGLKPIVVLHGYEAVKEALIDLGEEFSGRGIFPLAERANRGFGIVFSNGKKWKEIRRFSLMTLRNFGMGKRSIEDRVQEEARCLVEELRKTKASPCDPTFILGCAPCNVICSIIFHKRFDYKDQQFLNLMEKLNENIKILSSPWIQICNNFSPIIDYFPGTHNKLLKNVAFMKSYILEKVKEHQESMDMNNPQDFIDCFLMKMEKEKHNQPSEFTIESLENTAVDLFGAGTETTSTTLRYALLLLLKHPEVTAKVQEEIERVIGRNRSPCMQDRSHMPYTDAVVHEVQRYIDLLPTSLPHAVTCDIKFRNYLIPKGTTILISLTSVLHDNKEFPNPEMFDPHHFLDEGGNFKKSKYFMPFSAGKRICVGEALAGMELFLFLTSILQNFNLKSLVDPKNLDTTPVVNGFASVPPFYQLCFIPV

CYP2B6 [3] = molecular target: T1, CYP2B6; conditions: recombinant enzymes; ref Kent et al., (2002); cited from earlier work
CYP3A4 [4] = molecular target: T2, CYP3A4 (Homo sapiens, UniProt P08684); conditions: recombinant enzymes; ref Kent et al., (2002); cited from earlier work
T2 sequence (P08684 whole entry): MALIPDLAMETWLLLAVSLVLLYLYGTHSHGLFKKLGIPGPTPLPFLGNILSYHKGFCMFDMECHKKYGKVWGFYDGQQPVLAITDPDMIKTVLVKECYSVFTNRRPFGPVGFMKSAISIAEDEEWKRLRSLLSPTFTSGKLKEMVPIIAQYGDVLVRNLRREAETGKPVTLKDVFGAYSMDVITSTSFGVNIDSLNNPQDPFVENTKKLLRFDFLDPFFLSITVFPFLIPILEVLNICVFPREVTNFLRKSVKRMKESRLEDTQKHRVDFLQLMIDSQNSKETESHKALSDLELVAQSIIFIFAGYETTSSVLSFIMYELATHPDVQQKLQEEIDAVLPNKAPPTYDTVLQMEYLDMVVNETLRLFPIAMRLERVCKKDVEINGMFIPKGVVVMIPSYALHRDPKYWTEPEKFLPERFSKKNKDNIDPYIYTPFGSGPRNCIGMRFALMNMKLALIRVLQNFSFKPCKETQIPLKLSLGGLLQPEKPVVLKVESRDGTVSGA

CYP3A4 [5] = molecular target: T2, CYP3A4
CYP2C = test: Single concentration; format: in vitro ADME; conditions: human liver microsomes
CYP2D6 = CYP2D6 (Homo sapiens, UniProt P10635); test: Single concentration; format: in vitro ADME; conditions: human liver microsomes
Chain of CYP2D6 (P10635 whole entry, canonical isoform): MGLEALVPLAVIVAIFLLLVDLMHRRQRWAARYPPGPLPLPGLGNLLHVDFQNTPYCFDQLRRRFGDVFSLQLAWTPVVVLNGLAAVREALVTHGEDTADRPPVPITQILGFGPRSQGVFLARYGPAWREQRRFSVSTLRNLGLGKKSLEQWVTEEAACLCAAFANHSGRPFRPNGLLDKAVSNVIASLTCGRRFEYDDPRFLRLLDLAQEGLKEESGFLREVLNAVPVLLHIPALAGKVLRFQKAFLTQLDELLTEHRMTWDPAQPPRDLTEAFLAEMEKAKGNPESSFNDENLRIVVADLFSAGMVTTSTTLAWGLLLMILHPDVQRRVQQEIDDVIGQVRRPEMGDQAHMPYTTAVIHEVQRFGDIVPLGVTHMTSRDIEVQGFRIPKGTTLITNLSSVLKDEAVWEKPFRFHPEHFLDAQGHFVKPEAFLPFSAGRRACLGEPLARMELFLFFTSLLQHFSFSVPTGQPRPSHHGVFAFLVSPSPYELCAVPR

cytochrome P450 enzymes = test: Single concentration; conditions: 10 µM, 9 isoforms

| Molecule | inhibition at 10 min, 10 µM [1] | inhibition of CYP2B6 at 10 µM, in words (CYP2B6 [2]) | mode of CYP3A4 inhibition, in words (CYP3A4 [5]) | inhibition of any cytochrome P450 enzyme, in words (cytochrome P450 enzymes) | further results |
| --- | --- | --- | --- | --- | --- |
| CC1(C)[C@@H](O)CC[C@]2(C)[C@H]3C(=O)C=C4[C@@H]5C[C@@](C)(C(=O)O)CC[C@]5(C)CC[C@@]4(C)[C@]3(C)CC[C@@H]12 [18β-glycyrrhetinic acid] | > 50% |  |  |  |  |
| CC1(C)C=Cc2c(ccc3c2OC[C@@H](c2ccc(O)cc2O)C3)O1 [Glabridin, glabridin] | > 50% | not inhibition | competitively inhibited |  | inhibition of CYP2C9, in words (CYP2C9): reversibly inhibited; inhibition of CYP2B6, in words (CYP2B6 [3]): irreversibly inhibited; inhibition of CYP3A4, in words (CYP3A4 [4]): irreversibly inhibited |
| COc1c(CC=C(C)C)c(O)cc2oc(=O)c(-c3ccc(O)cc3O)cc12 [Glycycoumarin, glycycoumarin] | > 50% | inhibited |  |  | inhibition of CYP2C at 10 µM, in words (CYP2C): inhibited; inhibition of CYP2D6 at 10 µM, in words (CYP2D6): did not observe significant inhibition |
| O=C(/C=C/c1ccc(O)cc1)c1ccc(O)cc1O [Isoliquiritigenin, isoliquiritigenin] |  |  | competitively inhibited |  |  |
| O=C(/C=C/c1ccc(O[C@@H]2O[C@H](CO)[C@@H](O)[C@H](O)[C@H]2O)cc1)c1ccc(O)cc1O [Isoliquiritin, isoliquiritin] |  |  |  | did not inhibit |  |
| COc1c(CC=C(C)C)c(O)cc2c1C[C@H](c1ccc(O)c(CC=C(C)C)c1O)CO2 [Licoricidin, licoricidin] | > 50% | inhibited | competitively inhibited |  |  |
| isoliquiritin apioside |  |  |  | did not inhibit |  |
| liquiritin apioside |  |  |  | did not inhibit |  |
